In US6746673B2, “Pharmaceutical compositions containing anti-Fas antibody” (Sankyo Company, Limited, priority 1999, dated 2004):

System: Human lymphocyte cell stock HPB-ALL
Assay: XTT cell viability assay of apoptosis induction in HPB-ALL cells
Type: cell-based
Details: only methotrexate added, no anti-Fas antibody, FIG. 3
Experimental: Human lymphocyte cell stock HPB-ALL (cf. Morikawa, S., et al. (1978) Int. J. Cancer 21, 166-170) was cultured in RPMI 1640 medium containing 10% FCS (manufactured by Gibco B.R.L. Corporation) at 37° C., in the presence of 5% carbon dioxide gas for three days, and 50 μl of the culture (2.5×10^5 cells/50 μl) were dispensed into each well of a 96-well microplate (manufactured by Sumitomo Bakelite Co., Ltd.). Then, 50 μl of the RPMI medium containing methotrexate (manufactured by Sigma Chemical Company), and an anti-Fas antibody (CH11 or HFE7A, 0.001 mg/ml solution was serially diluted by three times) were added to each well, and was cultured at 37° C.
The cells in the plate to which CH11 was added as an anti-Fas antibody were kept to be cultured at 37° C. overnight. […] The plate was then incubated for 3 hours at 37° C., and the absorbance at 450 nm of each well was measured, to calculate cell viability, using the reducing power of the mitochondria as the index.
The viability of the cells in each well was calculated according to the following equation: […]
wherein “a” is the absorbance of a test well, “b” is the absorbance of a well with no cells and c is the absorbance of a well with no antibody added.

CN(Cc1cnc2nc(N)nc(N)c2n1)c1ccc(C(=O)N[C@@H](CCC(=O)O)C(=O)O)cc1 [methotrexate, Methotrexate]
viability of the cells: almost no change
